Results taken from PubChem BioAssay AID2060508 (Molecular Pharmacology Branch, DTP, NCI, 2025).

Test system: 454973-116-R2-J3-PDC spheroids, viability, % test/control
Assay: Anticancer human tumor 454973-116-R2-J3-PDC patient-derived pancreatic carcinoma cell line growth inhibition [GQUAD]
Settings: spheroids with HUVEC and MSC; for IC50: curve of first compound; for viability, T/C: stronger effect = lower value
In short: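 Viability of tumor cells grown as complex spheroids with endothelial and stromal cells, exposed to drug combinations. Top concentration at or near clinical Cmax (else 10 microM), diluted in half-log increments.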

[1] = second compound 0.0316 µM, first compound 0.0316 µM
[2] = second compound 0.0316 µM, first compound 0.1 µM
[3] = second compound 0.0316 µM, first compound 0.316 µM
[4] = second compound 0.0316 µM, first compound 1 µM
[5] = second compound 0.0316 µM, first compound 3.16 µM
[6] = second compound 0.0316 µM, first compound 10 µM
[7] = second compound 0.1 µM, first compound 0.0316 µM
[8] = second compound 0.1 µM, first compound 0.1 µM
[9] = second compound 0.1 µM, first compound 0.316 µM
[10] = second compound 0.1 µM, first compound 1 µM
[11] = second compound 0.1 µM, first compound 3.16 µM
[12] = second compound 0.1 µM, first compound 10 µM
[13] = second compound 0.316 µM, first compound 0.0316 µM
[14] = second compound 0.316 µM, first compound 0.1 µM
[15] = second compound 0.316 µM, first compound 0.316 µM
[16] = second compound 0.316 µM, first compound 1 µM
[17] = second compound 0.316 µM, first compound 3.16 µM
[18] = second compound 0.316 µM, first compound 10 µM
[19] = second compound 1 µM, first compound 0.0316 µM
[20] = second compound 1 µM, first compound 0.1 µM
[21] = second compound 1 µM, first compound 0.316 µM
[22] = second compound 1 µM, first compound 1 µM
[23] = second compound 1 µM, first compound 3.16 µM
[24] = second compound 1 µM, first compound 10 µM
[25] = second compound 3.16 µM, first compound 0.0316 µM
[26] = second compound 3.16 µM, first compound 0.1 µM
[27] = second compound 3.16 µM, first compound 0.316 µM
[28] = second compound 3.16 µM, first compound 1 µM
[29] = second compound 3.16 µM, first compound 3.16 µM
[30] = second compound 3.16 µM, first compound 10 µM
[31] = second compound 10 µM, first compound 0.0316 µM
[32] = second compound 10 µM, first compound 0.1 µM
[33] = second compound 10 µM, first compound 0.316 µM
[34] = second compound 10 µM, first compound 1 µM
[35] = second compound 10 µM, first compound 3.16 µM
[36] = second compound 10 µM, first compound 10 µM
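Further: spheroids exposed to compounds for seven days.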
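Wherever viability, T/C is given: 100% = DMSO vehicle control viability.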

C=CC(=O)N1CCN(c2nc(=O)n(-c3c(C)ccnc3C(C)C)c3nc(-c4c(O)cccc4F)c(F)cc23)C(C)C1 (stereo unspecified) + CN(C)c1ccc(Nc2c3ccc(NC(=O)CCN4CCCC4)cc3nc3cc(NC(=O)CCN4CCCC4)ccc23)cc1
IC50 (second compound 0.0316 µM): > 10 µM | IC50 (second compound 0.1 µM): > 10 µM | IC50 (second compound 0.316 µM): > 10 µM | IC50 (second compound 1 µM): > 10 µM | IC50 (second compound 3.16 µM): > 10 µM | IC50 (second compound 10 µM): > 10 µM | viability, T/C [1]: 112% | viability, T/C [2]: 103% | viability, T/C [3]: 110% | viability, T/C [4]: 112% | viability, T/C [5]: 102% | viability, T/C [6]: 115% | viability, T/C [7]: 103% | viability, T/C [8]: 98.9% | viability, T/C [9]: 107% | viability, T/C [10]: 107% | viability, T/C [11]: 102% | viability, T/C [12]: 112% | viability, T/C [13]: 107% | viability, T/C [14]: 103% | viability, T/C [15]: 103% | viability, T/C [16]: 110% | viability, T/C [17]: 99.5% | viability, T/C [18]: 111% | viability, T/C [19]: 97.3% | viability, T/C [20]: 91.8% | viability, T/C [21]: 104% | viability, T/C [22]: 86.7% | viability, T/C [23]: 102% | viability, T/C [24]: 100% | viability, T/C [25]: 97.7% | viability, T/C [26]: 90.7% | viability, T/C [27]: 93.8% | viability, T/C [28]: 77.7% | viability, T/C [29]: 103% | viability, T/C [30]: 105% | viability, T/C [31]: 83.4% | viability, T/C [32]: 77.9% | viability, T/C [33]: 82.4% | viability, T/C [34]: 68.5% | viability, T/C [35]: 79% | viability, T/C [36]: 77.5%

COc1ccc([C@@H](O)c2cc(-c3ncnc4cc(N5CCOCC5)ccc34)c(F)cc2Cl)nn1 + Cc1[nH]c2ccc(F)cc2c1-c1nc2c3cccnc3c3ncccc3c2[nH]1
IC50 (second compound 0.0316 µM): 7.42 µM | IC50 (second compound 0.1 µM): > 10 µM | IC50 (second compound 0.316 µM): > 10 µM | IC50 (second compound 1 µM): 9.54 µM | IC50 (second compound 3.16 µM): > 10 µM | IC50 (second compound 10 µM): 7.1 µM | viability, T/C [1]: 120% | viability, T/C [2]: 101% | viability, T/C [3]: 106% | viability, T/C [4]: 87.6% | viability, T/C [5]: 59.3% | viability, T/C [6]: 46.9% | viability, T/C [7]: 115% | viability, T/C [8]: 104% | viability, T/C [9]: 95.3% | viability, T/C [10]: 85.4% | viability, T/C [11]: 75% | viability, T/C [12]: 55.3% | viability, T/C [13]: 99.3% | viability, T/C [14]: 106% | viability, T/C [15]: 85.4% | viability, T/C [16]: 91.5% | viability, T/C [17]: 65.9% | viability, T/C [18]: 53.5% | viability, T/C [19]: 98.2% | viability, T/C [20]: 97.3% | viability, T/C [21]: 96.2% | viability, T/C [22]: 75.8% | viability, T/C [23]: 70.6% | viability, T/C [24]: 48.5% | viability, T/C [25]: 94.8% | viability, T/C [26]: 94.1% | viability, T/C [27]: 92.3% | viability, T/C [28]: 91.2% | viability, T/C [29]: 66% | viability, T/C [30]: 50.7% | viability, T/C [31]: 89.2% | viability, T/C [32]: 80.2% | viability, T/C [33]: 93.9% | viability, T/C [34]: 72.2% | viability, T/C [35]: 66.9% | viability, T/C [36]: 43.4%

Cc1cccc(N(C)C(=O)C2C(O)CCN2c2nc(C)cc(C(F)(F)F)c2C#N)c1 (stereo unspecified) + Cc1[nH]c2ccc(F)cc2c1-c1nc2c3cccnc3c3ncccc3c2[nH]1
IC50 (second compound 0.0316 µM): > 10 µM | IC50 (second compound 0.1 µM): > 10 µM | IC50 (second compound 0.316 µM): > 10 µM | IC50 (second compound 1 µM): > 10 µM | IC50 (second compound 3.16 µM): > 10 µM | IC50 (second compound 10 µM): > 10 µM | viability, T/C [1]: 102% | viability, T/C [2]: 94.9% | viability, T/C [3]: 104% | viability, T/C [4]: 102% | viability, T/C [5]: 108% | viability, T/C [6]: 98% | viability, T/C [7]: 102% | viability, T/C [8]: 100% | viability, T/C [9]: 103% | viability, T/C [10]: 97.7% | viability, T/C [11]: 115% | viability, T/C [12]: 108% | viability, T/C [13]: 104% | viability, T/C [14]: 104% | viability, T/C [15]: 109% | viability, T/C [16]: 101% | viability, T/C [17]: 109% | viability, T/C [18]: 110% | viability, T/C [19]: 103% | viability, T/C [20]: 105% | viability, T/C [21]: 113% | viability, T/C [22]: 107% | viability, T/C [23]: 112% | viability, T/C [24]: 106% | viability, T/C [25]: 86.8% | viability, T/C [26]: 88.7% | viability, T/C [27]: 97.4% | viability, T/C [28]: 106% | viability, T/C [29]: 103% | viability, T/C [30]: 105% | viability, T/C [31]: 105% | viability, T/C [32]: 95.8% | viability, T/C [33]: 101% | viability, T/C [34]: 90.2% | viability, T/C [35]: 99% | viability, T/C [36]: 101%
